The values below come from patent publication US5270316A, “Condensed purine derivatives” (Kyowa Hakko Kogyo Co., Ltd., priority 1989, dated 1993).

Bounds are passed on as bounds.

For the first series, the system named is Platelet Activating Factor (PAF)-induced mortality. Nature of the series: Inhibition of Platelet Activating Factor (PAF)-induced mortality. The series is classed as in vivo, mouse (male dd mice). The following applies: Mus musculus, 2 h, oral, mice, one hour before PAF 40 μg/kg i.v., p<0.05 vs control, read-out: PAF-induced mortality inhibition, minimum effective dose (MED). Here is the method:
The experiment was performed by a minor modification of method of Carlson et al. [Agents and Actions, 21, 379 (1987)]. Groups each consisting of 10 male dd mice (weighing 28 to 32 g) were used, and 100 mg/kg of test compound or a saline (control) was orally administrated. One hour after the administration of test compound, 40 μg/kg of PAF (manufactured by Avanti Polar Lipids Co., Ltd.) was intravenously administered. Two hours after PAF injection, the mortality rate of the animals was observed.
For the compound `CCCN1C(=O)N2CCN=C2c2c1nc(C1CCCC1)n2C` [Compound 7, 2-Cyclopentyl-1-methyl-4-n-propyl-1,4,7,8-tetrahydro-5H-imidazo[2,1-i]purin-5-one], the minimal effective dose was over 100 mg/kg.

Consider `O=C1N2CCN=C2c2[nH]cnc2N1Cc1ccccc1` [Compound 9, 4-Benzyl-1,4,7,8-tetrahydro-5H-imidazo[2,1-i]purin-5-one], for which the minimal effective dose amounted to 100 mg/kg.

The test system of a further series is trachea. Nature of the series: Passive Schultz-Dale reaction (bronchodilatory effects), relaxation of sensitized trachea strips. The arrangement: species or system guinea pig (Hartley male). The following applies: Cavia porcellus; sensitized guinea pig trachea, EWA 1 μg/ml, 37° C.; read-out: Passive S-D reaction IC50 (concentration of 50% relaxation rate). Here is the method:
Guinea pigs were passively sensitized as follows. […] After 24 hours, the guinea pigs were stunned and exsanguinated, and then trachea was excised. The zig-zag strips of the trachea were prepared by the method of Emmerson and Mackay [J. Pharm. […] After the contraction curves reached plateau the compounds were successively added in order to get cumulative concentration-relaxation curves.
As for `CCCN1C(=O)N2CCN=C2c2c1nc(C1CCCC1)n2C` [Compound 7, 2-Cyclopentyl-1-methyl-4-n-propyl-1,4,7,8-tetrahydro-5H-imidazo[2,1-i]purin-5-one], the IC50 was 8.1 µM.

On to `CCCN1C(=O)N2CC(CC)N=C2c2[nH]c(C3CCCC3)nc21` (centres unmarked) [Compound 8, 2-Cyclopentyl-8-ethyl-4-n-propyl-1,4,7,8-tetrahydro-5H-imidazo[2,1-i]purin-5-one], for which the IC50 is 72 µM.

Regarding `O=C1N2CCN=C2c2[nH]cnc2N1Cc1ccccc1` [Compound 9, 4-Benzyl-1,4,7,8-tetrahydro-5H-imidazo[2,1-i]purin-5-one], the IC50 was over 40 µM.

System in a further series: not listed separately
Nature of the series: Acute toxicity, minimum lethal dose (oral, mice). The series is classed as in vivo. To be noted: male dd-mice, mortality observed for seven days. The method, then: The compounds were orally administrated to male dd-mice weighing 20±1 g. Minimum lethal dose (MLD) was determined by observing the mortality for seven days after the administration.
Consider `O=C1N2CCN=C2c2[nH]cnc2N1Cc1ccccc1` [9 Sa], for which the “Minimum lethal dose (MLD)” value is recorded as over 300 mg/kg.

Regarding `CCCN1C(=O)N2C(=NCC2c2ccccc2)c2[nH]c(C3CCCC3)nc21` (centres unmarked) [11 Sa], the “Minimum lethal dose (MLD)” value is on record as over 300 mg/kg.

For a further series, the system named is Glycerol-induced Renal Deficient Model. In words: Renal protecting activity (glycerol-induced renal deficient model): serum creatinine and urea nitrogen. The series is classed as in vivo, rat (Wistar male rats). To be noted: 10 mg/kg intraperitoneal, rats, 24 hours after glycerol injection; own control beside each compound; normal control 0.50. Here is the method: It is well known that subcutaneous or intramuscular administration of glycerol to rat induce acute renal insufficiency characterized by renal tubular disturbance [Can J. Physiol.
Wistar male rats (fasted both food and water for 18 hours) were used. A test compound or saline (control) was intraperitoneally administered (dose: 10 mg/kg) to rats. After 30 minutes rats were anesthesized with ether and the back skin was picked up and 0.8 ml/100 g of 50% glycerol was subcutaneously administered. 24 hours after the glycerol injection, the rats were anesthesized with ether and 5 ml of the blood was collected from the descending aorta. To obtain the serum, after allowing it to stand for 30 minutes or longer, the blood sample was centrifuged at 3000 rpm for 10 minutes. Creatinine in the serum sample was determined using autoanalyzer (AU510, Olympus) or clinical analysis kit of creatinine (Creatinine Test Wako; by Wako Pure Chemical Ind., Japan). Urea nitrogen in the serum was determined using autoanalyzer (AU510; made by Olympus Optical Co., Ltd, Japan) or clinical analysis kit of urea nitrogen (Urea nitrogen test wako; by Wako Pure Chemical Ind., Japan).
As to `CCCN1C(=O)N2CCN=C2c2c1nc(C1CCCC1)n2C` [Compound 7, 2-Cyclopentyl-1-methyl-4-n-propyl-1,4,7,8-tetrahydro-5H-imidazo[2,1-i]purin-5-one], the “Creatinine in serum, glycerol treated, test compound administrated” value worked out at 1.70 ± 0.17 mg/dL.

As for `CCCN1C(=O)N2CC(CC)N=C2c2[nH]c(C3CCCC3)nc21` (centres unmarked) [Compound 8, 2-Cyclopentyl-8-ethyl-4-n-propyl-1,4,7,8-tetrahydro-5H-imidazo[2,1-i]purin-5-one], the “Creatinine in serum, glycerol treated, test compound administrated” value turned out to be 3.17 ± 0.32 mg/dL.

The same series, now with this note: 10 mg/kg intraperitoneal, rats, 24 hours after glycerol injection; own control beside each compound; normal control 15.2.
`CCCN1C(=O)N2CCN=C2c2c1nc(C1CCCC1)n2C` [Compound 7, 2-Cyclopentyl-1-methyl-4-n-propyl-1,4,7,8-tetrahydro-5H-imidazo[2,1-i]purin-5-one]: the “Urea nitrogen in serum, glycerol treated, test compound administrated” value came out at 64.3 ± 7.1 mg/dL.

For the compound `CCCN1C(=O)N2CC(CC)N=C2c2[nH]c(C3CCCC3)nc21` (centres unmarked) [Compound 8, 2-Cyclopentyl-8-ethyl-4-n-propyl-1,4,7,8-tetrahydro-5H-imidazo[2,1-i]purin-5-one], the “Urea nitrogen in serum, glycerol treated, test compound administrated” value is 121.2 ± 9.0 mg/dL.

System in another series: not listed separately
In words: Diuretic activity (oral, urine collected for 6 hours). The series is classed as in vivo, rat (Wistar male rats). To be noted: Rattus norvegicus, 6.25 mg/kg oral, rats, relative value for control (1.00), read-out: Na+/K+. The method, then:
Wistar male rats weighing 150 to 300 g were used after they were fasted for 18 hours. A test compound or saline (control) was orally administered to rats and urine was collected for 6 hours. The test was performed using 3 groups per the test compound, and each group consists of 3 animals. The urine was metered by a measuring cylinder and electrolytes (Na^+ and K^+) in the urine were assayed with a flame photometer (model […] manufactured by Hitachi Ltd.). Parameters in Table 3 are all expressed by relative value for control.
As for `CCCN1C(=O)N2CC(CC)N=C2c2[nH]c(C3CCCC3)nc21` (centres unmarked) [Compound 8, 2-Cyclopentyl-8-ethyl-4-n-propyl-1,4,7,8-tetrahydro-5H-imidazo[2,1-i]purin-5-one], the response vs control in vivo at 6.25 mg/kg came out at 145%.

The same series, now with this note: Rattus norvegicus, 6.25 mg/kg oral, rats, relative value for control, read-out: Excretion of K+.
On to `CCCN1C(=O)N2CC(CC)N=C2c2[nH]c(C3CCCC3)nc21` (centres unmarked) [Compound 8, 2-Cyclopentyl-8-ethyl-4-n-propyl-1,4,7,8-tetrahydro-5H-imidazo[2,1-i]purin-5-one], for which the response vs control in vivo at 6.25 mg/kg was 1%.

The series is the same for the next values; noted with them: Rattus norvegicus, 6.25 mg/kg oral, rats, relative value for control, read-out: Excretion of Na+.
In the case of `CCCN1C(=O)N2CC(CC)N=C2c2[nH]c(C3CCCC3)nc21` (centres unmarked) [Compound 8, 2-Cyclopentyl-8-ethyl-4-n-propyl-1,4,7,8-tetrahydro-5H-imidazo[2,1-i]purin-5-one], the response vs control in vivo at 6.25 mg/kg is 46%.

Staying with this series, now noted: Rattus norvegicus, 6.25 mg/kg oral, rats, relative value for control, read-out: Urine volume.
As to `CCCN1C(=O)N2CC(CC)N=C2c2[nH]c(C3CCCC3)nc21` (centres unmarked) [Compound 8, 2-Cyclopentyl-8-ethyl-4-n-propyl-1,4,7,8-tetrahydro-5H-imidazo[2,1-i]purin-5-one], the response vs control in vivo at 6.25 mg/kg was 42%.

Staying with this series, now noted: Rattus norvegicus, 25 mg/kg oral, rats, relative value for control (1.00), read-out: Na+/K+.
As to `O=C1N2CCN=C2c2[nH]cnc2N1Cc1ccccc1` [9 Sa], the response vs control in vivo at 25 mg/kg stood at 126%.

In the case of `CCCN1C(=O)N2CCN=C2c2c1nc(C1CCCC1)n2C` [Compound 7, 2-Cyclopentyl-1-methyl-4-n-propyl-1,4,7,8-tetrahydro-5H-imidazo[2,1-i]purin-5-one], the response vs control in vivo at 25 mg/kg stood at 137%.

Still in this series, the particulars now being: Rattus norvegicus, 25 mg/kg oral, rats, relative value for control, read-out: Excretion of K+.
Regarding `O=C1N2CCN=C2c2[nH]cnc2N1Cc1ccccc1` [9 Sa], the response vs control in vivo at 25 mg/kg amounted to 31%.

With `CCCN1C(=O)N2CCN=C2c2c1nc(C1CCCC1)n2C` [Compound 7, 2-Cyclopentyl-1-methyl-4-n-propyl-1,4,7,8-tetrahydro-5H-imidazo[2,1-i]purin-5-one], the response vs control in vivo at 25 mg/kg turned out to be 56%.

Staying with this series, now noted: Rattus norvegicus, 25 mg/kg oral, rats, relative value for control, read-out: Excretion of Na+.
`O=C1N2CCN=C2c2[nH]cnc2N1Cc1ccccc1` [9 Sa]: the response vs control in vivo at 25 mg/kg came out at 65%.

Turning to `CCCN1C(=O)N2CCN=C2c2c1nc(C1CCCC1)n2C` [Compound 7, 2-Cyclopentyl-1-methyl-4-n-propyl-1,4,7,8-tetrahydro-5H-imidazo[2,1-i]purin-5-one], the response vs control in vivo at 25 mg/kg is 114%.

Still in this series, the particulars now being: Rattus norvegicus, 25 mg/kg oral, rats, relative value for control, read-out: Urine volume.
Turning to `O=C1N2CCN=C2c2[nH]cnc2N1Cc1ccccc1` [9 Sa], the response vs control in vivo at 25 mg/kg was 88%.

On to `CCCN1C(=O)N2CCN=C2c2c1nc(C1CCCC1)n2C` [Compound 7, 2-Cyclopentyl-1-methyl-4-n-propyl-1,4,7,8-tetrahydro-5H-imidazo[2,1-i]purin-5-one], for which the response vs control in vivo at 25 mg/kg worked out at 128%.
